Test results published in patent US20230167437A1, “COMPOSITIONS FOR TREATING CANCER WITH KRAS MUTATIONS AND USES THEREOF” (Aadigen, LLC, priority 2020, published 2023).

Legend:
[1] = tested on: KRAS 35G>T mutant G12V; assay: Indel frequencies at the endogenous target sequences (T7E1 / deep sequencing) after ADGN/Cas9 mRNA/gRNA transfection; type: cell-based, human; settings: for indel frequencies: deep sequencing, 72 hours after transfection, Cas9 mRNA 0.15 μg, gRNA 0.2 μg, ADGN-100
Experimental: (§1) Complex formation with mRNA:gRNA: ADGN peptide/mRNA/gRNA particles were prepared at a 20:1:1 molar ratio. ADGN/Cas9mRNA/sgRNA complexes were prepared at a 20/1/1 molar ratio with 0.5 μg mRNA: 1.5 μg sgRNA and 5% Glucose or DMEM (example for 96 well plates). […] Premixed Cas9 mRNA/gRNA were prepared in sterile water at room temperature in a glass vial (1-4 ml). ADGN-peptide solution was added dropwise (1 drop/sec) under magnetic agitation at 400 rpm to obtain a 1:2 ratio, and incubated for 30 min at room temperature or 37° C. Just before transfection, 150 μl Glucose or DMEM was added and the solution was mixed under magnetic agitation at 400 rpm for 1 minute. Then the solution was incubated for 5 min at 37° C. Then the complexes was ready for cell transfection or IV administration. Prior to IV administration, complexes were diluted in sucrose 5% solution.
(§2) Transfection protocol. The following protocols are reported for 24/48/96 well plate format transfection. Cells should be trypsinized and seeded a day prior transfection Cells were cultured in Dulbecco's Modified Eagle's Medium (DMEM), supplemented with 2 mM glutamine, 1% antibiotics (streptomycin 10,000 μg/mL, penicillin, 10,000 IU/mL) and 10% (w/v) foetal calf serum (FCS), at 37° C. in a humidified atmosphere containing 5% CO2. 96 well plates seeded with 50,000 cells, the day prior transfection, grown to 60-80% confluence and set up to be at around 70% confluence at the day of transfection. Before transfection, cells are washed twice with DMEM (without FBS and pen/strep) (100 μl/well). Cells were then overlaid with 25 μl of complex solution, mixed gently and incubated for 10 min at 37° C.+5% CO2. 50 μl of fresh DMEM (without FBS and Antibiotics) was added and cells were incubated for 2 h at 37° C.+5% CO2 (time of exposure can be adjusted based on sensitivity of the cells). 250 μL of DMEM (containing 10% FCS and 1% antibiotics) were then added without removing the overlay of ADGN peptide/mRNA complexes. Cells were returned to the incubator (37° C., 5% CO2) and analyzed 48 hours to 72 hours post transfection.
(§3) Nine different gRNAs targeting KRAS 35G>T mutant G12V (gRNA35T1, gRNA35T2, gRNA35T3, gRNA35T4, gRNA35T5, gRNA35T6, gRNA35T7, gRNA35T8 and gRNA35T9 (see FIG. 18)) were evaluated on SW403 and SW480 cancer cells harboring G12V KRAS mutation. Cas9 mRNA (0.15 μg) and gRNA (0.2 μg) were associated with ADGN-peptides as reported in experimental procedure. SW403, SW480 and HT-29 cells were cultured in 48 well plate format and treated with free mRNACas9-gRNA, or ADGN-100/mRNACas9:gRNA complex. Indel frequencies at the endogenous target sequences was evaluated 72 hours after transfection by either T7E1 method and by deep sequencing. Cell proliferation was analyzed over a period of 5 days using CellTiter Glow kits on GlowMax (Promega).
(§4) In order to confirm the specificity of sgRNAs targeting G12V, G12C or G12D KRAS mutation, gRNA35T3 targeting G12V, gRNA34T6 targeting G12C, and gRNA35A5 targeting G12D were evaluated on a large panel of cancer cells harboring different KRAS mutations including SW403, SW480, PANC1, PK-45H, PK-1, MIA-PACA, H23, H358, HT-29, HS-68 and LS513. Cas9 mRNA (0.2 μg) and gRNA (0.4 μg) were associated with ADGN peptide at molar ratio 20/1 (peptide/nucleic acid). Cells were cultured in 48 well plate format and treated with free mRNACas9-gRNA, or ADGN/mRNACas9:gRNA complex. Indel frequencies at the endogenous target sequences was evaluated 72 hours after transfection by either T7E1 method and cell proliferation was analyzed over a period of 5 days using CellTiter Glow kits on GlowMax (Promega).

[2] = tested on: HT-29 cells; assay: Cell proliferation over 5 days (CellTiter Glow); type: cell-based, human; settings: KRAS WT cells
Experimental: as §2, §3

[3] = tested on: wild type KRAS; assay: Indel frequencies at the endogenous target sequences (T7E1 / deep sequencing) after ADGN/Cas9 mRNA/gRNA transfection; type: cell-based, human; settings: HT29 cells
Experimental: as §1, §2, §3
Nine different gRNAs targeting KRAS 35G>A mutant G12D (gRNA35A1, gRNA35A2, gRNA35A3, gRNA35A4, gRNA35A5, gRNA35A6; gRNA35A7, gRNA35A8, gRNA35A9) were evaluated on LS513, Panc1, PK-45H, and PK1 cancer cells harboring G12D KRAS mutation. Cas9 mRNA (0.1 μg) and gRNA (0.2 μg) were associated with ADGN-peptide at molar ratio 20/1 (peptide/nucleic acid). LS513, Panc1, PK-45H, PK1, HS-68 and HT-29 cells were cultured in 48 well plate format and treated with free mRNACas9-gRNA, or ADGN/mRNACas9:gRNA complex. Indel frequencies at the endogenous target sequences was evaluated 72 hours after transfection by either T7E1 method or deep sequencing. Cell proliferation was analyzed over a period of 5 days using CellTiter Glow kits on GlowMax (Promega).

[4] = tested on: phospho-p44/42 MAPK (Erk1/2) (Thr202/Tyr204); assay: Western blot of KRAS downstream signaling 48 h post transfection; type: cell-based, human; settings: SW403 cells
Experimental: (§5) In order to verify the specific effect of your lead sgRNA targeting G12V and G12D KRAS mutation, gRNA35A5 G12D and gRNA35T3 G12V on KRAS signal transduction pathway in PANC-1 and SW403 cells, we measured the levels of downstream signaling proteins that are activated by KRAS. We specifically looked for changes in key signaling pathways, such as mitogen-activated protein kinase (MAPK) or PI3K/Akt, which are known to be the major effector pathways of KRAS activation. Cas9 mRNA (0.2 μg) and gRNA (0.2 μg or 0.5 μg) were associated with ADGN peptide at molar ratio 20/1 (peptide/nucleic acid). PANC1 and SW403 cells were cultured in 48 well plate format and treated with free mRNACas9-gRNA, or ADGN/mRNACas9:gRNA complex. Levels of Erk and Akt phosphorylation were measured 48 h post transfection by western blot using phospho-Akt (Ser 473) (CST, #9271, RRID:AB_329825) and phospho-p44/42 MAPK (Erk1/2) (Thr202/Tyr204) (CST, #4370, RRID:AB_2315112).

[5] = tested on: phospho-Akt (Ser 473); assay: as above; type: cell-based, human; settings: SW403 cells
Experimental: as §5

[6] = tested on: SW403 and SW480 cells; assay: Cell proliferation over 5 days (CellTiter Glow); type: cell-based, human
Experimental: as §2, §3

[7] = tested on: pERK; assay: Downstream signaling proteins quantified by ELISA on tumors; type: in vivo, mice; settings: SW403 tumors
Experimental: The specificity of gRNA35A5 G12D and gRNA35T3 G12V for their targets in PANC-1 and SW403 tumors cells, have been analyzed. Female nude mice 6-weeks of age were injected with either Human pancreatic carcinoma cell (Panc1-Luc) containing the 35G>A mutation or Human colorectal cancer cells (SW403) containing 35G>T KRAS mutation (20×10^6 cells in 200 μl PBS). A period of 2 weeks was allowed for tumor development before the beginning of the experiments.
Animal were injected on day 1 and day 7. Mice received IV injection of 100 μl ADGN/mRNA complex in 5% glucose. At Day 50, animals were sacrificed and tissues/tumors were harvested. At Day 50 post treatment, level of expression of housekeeping genes; glyceraldehyde-3-phosphate dehydrogenase (GAPDH), HPRT-1 and mitochondrial ATP synthase 6 (mATPsy6) was evaluated by PCR in the tumor, liver, spleen and lung.
We analyzed the level of KRAS G12D or KRAS G12V gene editing by deep sequencing in PANC1 (FIG. 14A) and SW403 (FIG. 14B) tumors, respectively. […] The level of downstream signaling proteins (pAKT and pERK) were quantified by ELISA on PANC1 and SW403 tumors. […] Given that targeting KRAS using Cas9/sgRNA can induce various secondary mutations at or near the target sites, deep sequencing shown similar level of secondary oncogenic mutations (G12D, G12V, G12C, G13D, G12R, G12A, and G12S) in KRAS-mutant cancer cells (SW403/PANC-1) or cells containing wild-type KRAS (HT29) either in vitro or in vivo.

[8] = tested on: G12V, G12D, G12C KRAS mutant cells and WT KRAS cells; assay: Specificity of lead sgRNAs on a large panel of cancer cells harboring different KRAS mutations (indel, proliferation); type: cell-based, human; settings: Cas9 mRNA 0.2 μg, gRNA 0.4 μg
Experimental: as §4

[9] = tested on: Mia-PACA, H23 and H358 cells; assay: Cell proliferation over 5 days (CellTiter Glow); type: cell-based, human
Experimental: as §2
(§6) Eight different gRNAs targeting KRAS 34G>T mutant G12C (gRNA34T1, gRNA34T2, gRNA34T3, gRNA34T4, gRNA34T5, gRNA34T6, gRNA34T7 and gRNA34T8) were evaluated on MIA-PACA, H23, H358, H29 and PANC1 cells. Cas9 mRNA (0.1 μg) and gRNA (0.2 μg) were associated with ADGN peptide at molar ratio 20/1 (peptide/nucleic acid). MIA-PACA, H23, H358, PANC1 and HT29 cells were cultured in 48 well plate format and treated with free mRNACas9-gRNA, or ADGN/mRNACas9:gRNA complex. Indel frequencies at the endogenous target sequences was evaluated 72 hours after transfection by either T7E1 method or deep sequencing. Cell proliferation was analyzed over a period of 5 days using CellTiter Glow kits on GlowMax (Promega).

[10] = tested on: KRAS 34G>T mutant G12C; assay: Indel frequencies at the endogenous target sequences (T7E1 / deep sequencing) after ADGN/Cas9 mRNA/gRNA transfection; type: cell-based, human; settings: for indel frequencies: deep sequencing, 72 hours after transfection, Cas9 mRNA 0.1 μg, gRNA 0.2 μg
Experimental: as §1, §2, §6, §4

[11] = SW403 cells (heterozygous 35G>T)

AGC TGT TGG CGT AGG CAA (guide AGCTGTTGGCGTAGGCAA; chemistry not given here) [gRNA35T4, sgRNA target KRAS G12V mutation (c.35G>T); PAM GAG]
indel frequencies [1, 11]: 22%
indel frequencies ([1]; SW480 cells (homozygous 35G>T)): 41%
HT-29 proliferation [2]: altered also HT-29 proliferation
disruption of WT KRAS [3]: also induced disruption of WT KRAS in HT29 cells

GGTAGTTGGAGCTGTTGGCG (guide GGTAGTTGGAGCTGTTGGCG; chemistry not given here) [gRNA35T3, sgRNA target KRAS G12V mutation (c.35G>T); PAM TAG]
indel frequency ([1]; KRAS G12V mutated cancer cells): > 70%
indel editing and disruption of G12V mutant KRAS (FIG. 1A) ([1]; SW403, SW480 vs wild type KRAS HT29 cells, T7E1): specifically induced indel editing and efficient disruption
indel frequency ([1]; SW403 and SW480 cells, T7E1, 72 hours, Cas9 mRNA 0.2 μg, gRNA 0.4 μg): > 65%
indel frequencies [1, 11]: 65%
indel frequencies ([1]; SW480 cells (homozygous 35G>T)): 81%
level of p-Erk [4]: significantly affected
Akt phosphorylation [5]: poorly
fold more efficient than gRNA35T6 (cell proliferation) ([6]; SW403 and SW480 cells): 2 fold
fold more efficient than gRNA35T8 (cell proliferation) ([6]; SW403 and SW480 cells): 1.5 fold
cell proliferation blocked ([6]; SW403 and SW480 cells, 5 days): 75%
inhibition of proliferation or survival (FIG. 1B) ([6]; SW480 and SW403 cells vs HT29 cells harboring KRAS WT): specifically inhibit proliferation or survival of SW480 and SW403 cells
level of p-ERK [7]: significantly affected
effect on non-targeted KRAS mutant cells and WT KRAS cells (FIGS. 4A-4B) [8]: does not alter G12D and G12C KRAS mutant cells or WT KRAS cells

GTAGTTGGAGCTTGTGGCGT (guide GTAGTTGGAGCTTGTGGCGT; sgRNA, chemical modifications not given here, further chemistry not given here) [gRNA34T6, sgRNA target KRAS G12C mutation (34G>T); PAM AGG]
fold more efficient than gRNA34T3 (cell proliferation) [9]: 3 fold
fold more efficient than gRNA34T5 (cell proliferation) [9]: 2 fold
inhibition of proliferation or survival (FIG. 3B) ([9]; Mia-PACA, H23, H358 vs KRAS WT HT29 or HS-68 and PANC1 cells): specifically inhibit proliferation or survival of Mia-PACA, H23 and H358 cells
cell proliferation blocked ([9]; Mia-PACA, H23 and H358 cells, 5 days): 75%
indel frequencies ([10]; H23 cells): 78%
indel frequencies ([10]; H358 cells): 67%
indel frequency ([10]; KRAS G12C mutated cancer cells): > 70%
indel frequencies ([10]; Mia-PACA cells): 71%
indel editing and disruption of G12C mutant KRAS (FIG. 3A) ([10]; Mia-PACA, H23, H358 vs HT29 and PANC1 cells): induced indel editing and efficient disruption of G12C mutant KRAS
indel frequency ([10]; Mia-PACA, H23 and H358 cells, T7E1, 72 hours, Cas9 mRNA 0.2 μg, gRNA 0.4 μg): > 70%
effect on non-targeted KRAS mutant cells and WT KRAS cells (FIGS. 4A-4B) [8]: does not alter G12D and G12V KRAS mutant cells or WT KRAS cells
